Data as given in BindingDB's records for doi:10.1016/S0893-133X(01)00298-6 (Eli Lilly, 2001).
Where “and” joins values, the source holds several entries; their conditions need not be identical. Equal values may be shown once.

How the values were obtained:
[1] = biological target: 5-hydroxytryptamine receptor 1D (Homo sapiens, UniProt P28221)
[2] = biological target: Gastrin/cholecystokinin type B receptor (Mus musculus, UniProt P56481)
[3] = biological target: Alpha-1B adrenergic receptor (Rattus norvegicus, UniProt P15823)
[4] = biological target: Adenosine receptor A2b (Bos taurus, UniProt Q1LZD0)
[5] = biological target: 5-hydroxytryptamine receptor 6 (Homo sapiens, UniProt P50406)
[6] = biological target: Gamma-aminobutyric acid receptor subunit alpha-1 (Rattus norvegicus, UniProt P62813)
[7] = biological target: ATP-sensitive inward rectifier potassium channel 1 (Rattus norvegicus, UniProt P35560)
[8] = biological target: D(1A) dopamine receptor (Rattus norvegicus, UniProt P18901)
[9] = biological target: Nitric oxide synthase, brain (Rattus norvegicus, UniProt P29476)
[10] = biological target: Glutamate receptor 3 (Rattus norvegicus, UniProt P19492)
[11] = biological target: Delta-type opioid receptor (Rattus norvegicus, UniProt P33533)
[12] = biological target: Calcium-activated potassium channel subunit beta-1 (Rattus norvegicus, UniProt P97678)
[13] = biological target: Glycine receptor subunit alpha-1 (Rattus norvegicus, UniProt P07727)
[14] = biological target: Gamma-aminobutyric acid receptor subunit alpha-1 (Bos taurus, UniProt P08219)
[15] = biological target: 5-hydroxytryptamine receptor 1A (Homo sapiens, UniProt P08908)
[16] = biological target: Phosphatidylinositol 3,4,5-trisphosphate 5-phosphatase 2 (Rattus norvegicus, UniProt Q9WVR3)
[17] = biological target: Sigma non-opioid intracellular receptor 1 (Cavia porcellus, UniProt Q60492)
[18] = biological target: Sodium channel protein type 1 subunit alpha (Rattus norvegicus, UniProt P04774)
[19] = biological target: Alpha-2A adrenergic receptor (Homo sapiens, UniProt P08913)
[20] = biological target: Muscarinic acetylcholine receptor M2 (Homo sapiens, UniProt P08172)
[21] = biological target: Amine oxidase [flavin-containing] A (Rattus norvegicus, UniProt P21396)
[22] = biological target: Glutamate receptor ionotropic, kainate 1 (Rattus norvegicus, UniProt P22756)
[23] = biological target: Alpha-bungarotoxin (Bungarus multicinctus, UniProt P60615)
[24] = biological target: D(2) dopamine receptor (Homo sapiens, UniProt P14416)
[25] = biological target: Kappa-type opioid receptor (Cavia porcellus, UniProt P41144)
[26] = biological target: Amine oxidase [flavin-containing] B (Rattus norvegicus, UniProt P19643)
[27] = biological target: Substance-K receptor (Rattus norvegicus, UniProt P16610)
[28] = biological target: Mu-type opioid receptor (Rattus norvegicus, UniProt P33535)
[29] = biological target: Sodium channel protein type 2 subunit alpha (Rattus norvegicus, UniProt P04775)
[30] = biological target: Adenosine receptor A1 (Rattus norvegicus, UniProt P25099)
[31] = biological target: Alpha-1A adrenergic receptor (Homo sapiens, UniProt P35348)

Chain of Muscarinic acetylcholine receptor M2 (P08172 whole entry): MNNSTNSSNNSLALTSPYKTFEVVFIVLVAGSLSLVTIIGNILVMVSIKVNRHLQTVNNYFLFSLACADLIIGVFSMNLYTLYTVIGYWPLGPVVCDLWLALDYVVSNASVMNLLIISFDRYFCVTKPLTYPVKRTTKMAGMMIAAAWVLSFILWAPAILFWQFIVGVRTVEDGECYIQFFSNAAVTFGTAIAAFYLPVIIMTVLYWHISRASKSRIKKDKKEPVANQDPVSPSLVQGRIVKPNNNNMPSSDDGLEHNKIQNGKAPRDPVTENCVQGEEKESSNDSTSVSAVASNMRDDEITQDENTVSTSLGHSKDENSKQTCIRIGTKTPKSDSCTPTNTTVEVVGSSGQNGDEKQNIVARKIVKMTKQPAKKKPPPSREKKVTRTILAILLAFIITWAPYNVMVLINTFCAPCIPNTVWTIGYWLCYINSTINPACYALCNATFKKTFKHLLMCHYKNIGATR
Chain of Alpha-2A adrenergic receptor (P08913 whole entry): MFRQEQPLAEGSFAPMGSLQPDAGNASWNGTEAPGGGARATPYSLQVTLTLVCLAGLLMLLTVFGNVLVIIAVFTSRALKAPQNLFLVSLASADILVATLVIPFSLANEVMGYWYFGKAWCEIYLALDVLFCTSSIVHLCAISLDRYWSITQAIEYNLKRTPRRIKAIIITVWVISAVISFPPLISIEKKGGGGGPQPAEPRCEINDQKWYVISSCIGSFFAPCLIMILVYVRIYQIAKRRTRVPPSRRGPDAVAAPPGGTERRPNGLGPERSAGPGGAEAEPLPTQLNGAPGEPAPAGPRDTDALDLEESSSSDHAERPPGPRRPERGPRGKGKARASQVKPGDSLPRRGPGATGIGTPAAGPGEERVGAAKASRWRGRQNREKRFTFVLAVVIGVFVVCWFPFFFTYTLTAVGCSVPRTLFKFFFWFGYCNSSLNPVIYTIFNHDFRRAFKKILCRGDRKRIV
Chain of Sigma non-opioid intracellular receptor 1 (Q60492 whole entry): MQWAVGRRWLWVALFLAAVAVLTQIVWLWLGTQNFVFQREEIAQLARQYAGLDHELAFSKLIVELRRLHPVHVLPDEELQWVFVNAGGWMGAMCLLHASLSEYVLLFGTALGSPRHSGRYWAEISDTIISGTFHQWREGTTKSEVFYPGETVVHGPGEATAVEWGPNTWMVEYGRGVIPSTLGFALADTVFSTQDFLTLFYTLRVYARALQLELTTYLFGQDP
Chain of Calcium-activated potassium channel subunit beta-1 (P97678 whole entry): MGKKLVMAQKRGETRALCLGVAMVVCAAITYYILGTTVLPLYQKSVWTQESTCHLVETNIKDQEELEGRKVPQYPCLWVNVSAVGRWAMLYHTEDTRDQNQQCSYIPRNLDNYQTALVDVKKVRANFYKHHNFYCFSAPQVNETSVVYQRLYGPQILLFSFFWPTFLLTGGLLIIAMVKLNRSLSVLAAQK
Chain of Glycine receptor subunit alpha-1 (P07727 whole entry): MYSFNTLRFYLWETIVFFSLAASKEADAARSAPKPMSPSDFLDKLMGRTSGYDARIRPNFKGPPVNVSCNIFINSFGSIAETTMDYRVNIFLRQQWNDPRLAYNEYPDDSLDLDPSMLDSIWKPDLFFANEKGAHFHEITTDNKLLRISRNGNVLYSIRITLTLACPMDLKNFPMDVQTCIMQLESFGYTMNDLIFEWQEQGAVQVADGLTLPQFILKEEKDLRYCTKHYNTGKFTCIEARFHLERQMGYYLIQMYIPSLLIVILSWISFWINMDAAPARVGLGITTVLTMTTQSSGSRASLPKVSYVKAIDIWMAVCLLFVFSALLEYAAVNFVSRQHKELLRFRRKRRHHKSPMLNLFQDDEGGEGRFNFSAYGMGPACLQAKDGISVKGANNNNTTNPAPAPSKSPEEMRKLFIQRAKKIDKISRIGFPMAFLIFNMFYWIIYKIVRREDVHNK
Chain of Adenosine receptor A1 (P25099 whole entry): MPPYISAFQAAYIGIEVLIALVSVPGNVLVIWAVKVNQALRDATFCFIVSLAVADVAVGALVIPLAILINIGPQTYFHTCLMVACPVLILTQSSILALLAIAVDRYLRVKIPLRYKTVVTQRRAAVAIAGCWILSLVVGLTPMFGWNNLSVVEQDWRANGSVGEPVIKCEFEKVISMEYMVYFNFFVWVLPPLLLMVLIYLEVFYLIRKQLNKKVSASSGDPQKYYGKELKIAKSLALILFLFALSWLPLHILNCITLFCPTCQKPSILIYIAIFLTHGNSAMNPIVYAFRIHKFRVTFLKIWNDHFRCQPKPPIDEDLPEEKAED
Chain of Alpha-bungarotoxin (P60615 whole entry): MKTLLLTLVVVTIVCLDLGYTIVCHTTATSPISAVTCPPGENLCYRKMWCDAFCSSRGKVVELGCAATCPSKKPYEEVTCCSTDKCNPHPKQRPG
Chain of Amine oxidase [flavin-containing] B (P19643 whole entry): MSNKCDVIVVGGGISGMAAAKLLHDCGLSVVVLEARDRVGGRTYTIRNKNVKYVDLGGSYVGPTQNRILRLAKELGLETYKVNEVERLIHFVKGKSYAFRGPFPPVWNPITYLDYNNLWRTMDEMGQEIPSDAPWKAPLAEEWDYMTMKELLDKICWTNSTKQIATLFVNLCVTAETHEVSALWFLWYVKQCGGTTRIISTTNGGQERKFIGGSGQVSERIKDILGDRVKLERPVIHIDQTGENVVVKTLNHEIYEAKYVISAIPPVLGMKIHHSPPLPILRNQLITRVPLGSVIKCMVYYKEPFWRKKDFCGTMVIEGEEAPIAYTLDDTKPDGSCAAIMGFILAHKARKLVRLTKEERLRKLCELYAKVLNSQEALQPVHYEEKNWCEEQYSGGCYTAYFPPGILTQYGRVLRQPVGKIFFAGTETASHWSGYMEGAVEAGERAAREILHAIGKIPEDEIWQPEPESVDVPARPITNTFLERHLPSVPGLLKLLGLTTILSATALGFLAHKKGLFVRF
Chain of 5-hydroxytryptamine receptor 1D (P28221 whole entry): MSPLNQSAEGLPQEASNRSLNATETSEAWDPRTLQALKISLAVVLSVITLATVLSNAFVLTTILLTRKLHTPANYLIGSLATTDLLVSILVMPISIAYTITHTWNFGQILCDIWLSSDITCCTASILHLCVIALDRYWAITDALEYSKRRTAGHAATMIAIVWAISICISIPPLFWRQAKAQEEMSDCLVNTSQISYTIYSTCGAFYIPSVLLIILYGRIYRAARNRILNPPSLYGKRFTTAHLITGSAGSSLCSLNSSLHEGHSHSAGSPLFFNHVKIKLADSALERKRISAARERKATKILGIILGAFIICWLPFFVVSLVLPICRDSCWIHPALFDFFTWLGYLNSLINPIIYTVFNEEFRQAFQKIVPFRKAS
Chain of D(2) dopamine receptor (P14416 whole entry): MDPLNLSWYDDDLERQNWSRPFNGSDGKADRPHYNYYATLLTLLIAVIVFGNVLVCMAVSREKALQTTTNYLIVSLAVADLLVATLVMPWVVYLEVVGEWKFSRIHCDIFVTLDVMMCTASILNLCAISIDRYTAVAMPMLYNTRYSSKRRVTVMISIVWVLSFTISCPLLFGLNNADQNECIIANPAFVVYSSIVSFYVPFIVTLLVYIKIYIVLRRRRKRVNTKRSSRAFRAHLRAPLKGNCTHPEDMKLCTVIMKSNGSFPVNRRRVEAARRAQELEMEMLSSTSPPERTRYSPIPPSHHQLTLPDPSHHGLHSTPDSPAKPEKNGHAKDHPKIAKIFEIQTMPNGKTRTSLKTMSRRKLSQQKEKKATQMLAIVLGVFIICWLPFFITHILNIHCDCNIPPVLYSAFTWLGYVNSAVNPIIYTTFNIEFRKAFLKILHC
Chain of Kappa-type opioid receptor (P41144 whole entry): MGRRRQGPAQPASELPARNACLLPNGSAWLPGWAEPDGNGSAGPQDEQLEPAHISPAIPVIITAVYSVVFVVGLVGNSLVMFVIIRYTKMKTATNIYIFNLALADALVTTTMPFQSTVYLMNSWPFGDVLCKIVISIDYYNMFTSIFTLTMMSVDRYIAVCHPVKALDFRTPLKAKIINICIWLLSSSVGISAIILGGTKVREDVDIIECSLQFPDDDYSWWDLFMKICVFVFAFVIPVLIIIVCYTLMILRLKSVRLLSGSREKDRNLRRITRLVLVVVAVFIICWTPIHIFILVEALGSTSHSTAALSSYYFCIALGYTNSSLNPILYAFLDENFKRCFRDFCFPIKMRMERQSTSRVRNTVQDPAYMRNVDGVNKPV
Chain of Gastrin/cholecystokinin type B receptor (P56481 whole entry): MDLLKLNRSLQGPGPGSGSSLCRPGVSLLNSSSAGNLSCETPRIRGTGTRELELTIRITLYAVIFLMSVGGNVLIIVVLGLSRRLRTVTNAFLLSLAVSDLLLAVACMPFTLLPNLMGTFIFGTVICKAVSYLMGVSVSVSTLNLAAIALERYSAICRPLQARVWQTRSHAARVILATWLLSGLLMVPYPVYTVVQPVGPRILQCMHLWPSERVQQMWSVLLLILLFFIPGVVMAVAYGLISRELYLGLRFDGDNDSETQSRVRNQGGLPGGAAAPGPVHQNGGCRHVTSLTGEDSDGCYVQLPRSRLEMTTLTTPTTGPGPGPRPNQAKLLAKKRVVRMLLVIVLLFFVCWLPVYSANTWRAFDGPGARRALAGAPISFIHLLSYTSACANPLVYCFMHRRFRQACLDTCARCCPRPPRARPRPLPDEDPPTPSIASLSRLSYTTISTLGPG
Chain of Mu-type opioid receptor (P33535 whole entry): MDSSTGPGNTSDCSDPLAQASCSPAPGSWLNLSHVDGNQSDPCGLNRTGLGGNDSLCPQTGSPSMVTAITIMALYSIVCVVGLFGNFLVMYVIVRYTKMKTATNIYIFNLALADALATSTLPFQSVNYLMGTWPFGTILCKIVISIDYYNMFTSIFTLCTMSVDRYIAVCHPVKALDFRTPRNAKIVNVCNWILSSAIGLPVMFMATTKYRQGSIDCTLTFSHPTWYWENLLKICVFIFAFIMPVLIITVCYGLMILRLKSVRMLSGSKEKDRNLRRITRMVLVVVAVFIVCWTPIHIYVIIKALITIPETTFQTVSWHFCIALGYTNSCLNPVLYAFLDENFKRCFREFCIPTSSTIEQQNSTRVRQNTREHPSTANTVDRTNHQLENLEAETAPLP

| SMILES | Ki [1] | Ki [2] | Ki [3] | Ki [4] | Ki [5] | Ki [6] | Ki [7] | Ki [8] | Ki [9] | Ki [10] | Ki [11] | Ki [12] | Ki [13] | Ki [14] | Ki [15] | Ki [16] | Ki [17] | Ki [18] | Ki [19] | Ki [20] | also measured |
| --- | --- | --- | --- | --- | --- | --- | --- | --- | --- | --- | --- | --- | --- | --- | --- | --- | --- | --- | --- | --- | --- |
| CNCC[C@H](Oc1cccc2ccccc12)c1cccs1 [DULOXETINE] | 3 µM | > 1000 nM | > 1000 nM | 1000 nM | 419 nM | > 1000 nM | > 1000 nM | 1000 nM | 1000 nM | > 1000 nM | 1000 nM | 1000 nM | 1000 nM | > 1000 nM | 5 µM | 1000 nM | 1000 nM | > 1000 nM | 8600 nM and 1000 nM | 3000 nM and 1000 nM | Ki [21]: > 10 µM; Ki [22]: 1000 nM; Ki [23]: 1000 nM; Ki [24]: > 10 µM; Ki [25]: 1000 nM; Ki [26]: > 10 µM; Ki [27]: 1000 nM; Ki [28]: 1000 nM; Ki [29]: > 1000 nM; Ki [30]: > 1000 nM |
| COc1ccc(C(CN(C)C)C2(O)CCCCC2)cc1 (stereo unspecified) [NSC_62923] | > 10 µM | > 1000 nM | > 1000 nM | 1000 nM | 2790 nM | > 1000 nM | > 1000 nM | 1000 nM | 1000 nM | > 1000 nM | 1000 nM | 1000 nM | 1000 nM | > 1000 nM | > 10 µM | 1000 nM | 1000 nM | > 1000 nM | > 10000 nM and 1000 nM | > 10000 nM and 1000 nM | Ki [21]: > 10 µM; Ki [22]: 1000 nM; Ki [23]: 1000 nM; Ki [24]: > 10 µM; Ki [25]: 1000 nM; Ki [26]: > 10 µM; Ki [27]: 1000 nM; Ki [28]: 1000 nM; Ki [29]: > 1000 nM; Ki [30]: > 1000 nM; Ki [31]: > 10 µM |
